Laboratory results: ChEMBL document CHEMBL3885861, “Open TG-GATES”

Organism: Rattus norvegicus
Assay: Open TG-GATES - Regimen: Single
Format: toxicity, organism-based, Sprague-Dawley
Set-up: regimen Single, gender Male, age 6 weeks
Settings: in vivo, po, 10 mg/kg, route gavage, dose level High; for APTT / Bas / Eos / Fbg / Hb / Ht / Lym / MCH / MCHC / MCV / Mono / Neu / PT / Plat / RBC / Ret / WBC: tissue Blood; for KIDNEY_L / KIDNEY_R / KIDNEY_TOTAL: tissue Kidney; for LIVER: tissue Liver; for A/G / ALP / ALT / AST / BUN / CRE / Ca / Cl / DBIL / GLC / IP / K / LDH / Na / PL / RALB / TBIL / TC / TG / TP / gamma-GTP: tissue Plasma

Question: How did the TERMINAL_BW (9 h) turn out when `CN1C(C(=O)Nc2ccccn2)=C(O)c2sc(Cl)cc2S1(=O)=O` [LORNOXICAM] was run?
Answer: 221.8 g

Question: And the APTT (9 h)?
Answer: 18.9 s

Question: And the Bas (9 h)?
Answer: 0.4%

Question: And the Eos (9 h)?
Answer: 0.8%

Question: What about the Fbg (9 h) of the same molecule?
Answer: 215.6 mg/dL

Question: What about the Hb (9 h) of the same molecule?
Answer: 13.2 g/dL

Question: What about the Ht (9 h) of the same molecule?
Answer: 39.2%

Question: What about the Lym (9 h) of the same molecule?
Answer: 63.6%

Question: And the MCH (9 h)?
Answer: 21.1 pg

Question: And the MCHC (9 h)?
Answer: 33.7%

Question: What about the MCV (9 h) of the same molecule?
Answer: 62.6 fL

Question: What about the Mono (9 h) of the same molecule?
Answer: 4.2%

Question: And the Neu (9 h)?
Answer: 30.6%

Question: And the PT (9 h)?
Answer: 12.5 s

Question: And the Plat (9 h)?
Answer: 113.4 x10_4/uL

Question: What about the RBC (9 h) of the same molecule?
Answer: 627.4 x10_4/ul

Question: What about the Ret (9 h) of the same molecule?
Answer: 7%

Question: What about the WBC (9 h) of the same molecule?
Answer: 97.9 x10_2/uL

Question: And the KIDNEY_L (9 h)?
Answer: 1 g

Question: And the KIDNEY_R (9 h)?
Answer: 1 g

Question: What about the KIDNEY_TOTAL (9 h) of the same molecule?
Answer: 2 g

Question: What about the LIVER (9 h) of the same molecule?
Answer: 9.3 g

Question: And the A/G (9 h)?
Answer: 1.7

Question: What about the ALP (9 h) of the same molecule?
Answer: 755.2 IU/L

Question: What about the ALT (9 h) of the same molecule?
Answer: 35.6 IU/L

Question: What about the AST (9 h) of the same molecule?
Answer: 69.8 IU/L

Question: What about the BUN (9 h) of the same molecule?
Answer: 13.8 mg/dL

Question: What about the CRE (9 h) of the same molecule?
Answer: 0.3 mg/dL

Question: What about the Ca (9 h) of the same molecule?
Answer: 10.5 mg/dL

Question: And the Cl (9 h)?
Answer: 103.6 meq/L

Question: And the DBIL (9 h)?
Answer: 0.08 mg/dL

Question: What about the GLC (9 h) of the same molecule?
Answer: 188 mg/dL

Question: What about the IP (9 h) of the same molecule?
Answer: 9.1 mg/dL

Question: What about the K (9 h) of the same molecule?
Answer: 4.1 meq/L

Question: And the LDH (9 h)?
Answer: 195.6 IU/L

Question: What about the Na (9 h) of the same molecule?
Answer: 141.4 meq/L

Question: What about the PL (9 h) of the same molecule?
Answer: 130.8 mg/dL

Question: And the RALB (9 h)?
Answer: 3.3 g/dL

Question: What about the TBIL (9 h) of the same molecule?
Answer: 0.1 mg/dL

Question: And the TC (9 h)?
Answer: 67.6 mg/dL

Question: And the TG (9 h)?
Answer: 59.2 mg/dL

Question: And the TP (9 h)?
Answer: 5.3 g/dL

Question: What about the gamma-GTP (9 h) of the same molecule?
Answer: 1.2 IU/L

Question: And the TERMINAL_BW (24 h)?
Answer: 236.6 g

Question: What about the APTT (24 h) of the same molecule?
Answer: 21.2 s

Question: And the Bas (24 h)?
Answer: 0.2%

Question: What about the Eos (24 h) of the same molecule?
Answer: 0.4%

Question: And the Fbg (24 h)?
Answer: 261 mg/dL

Question: And the Hb (24 h)?
Answer: 12.8 g/dL

Question: What about the Ht (24 h) of the same molecule?
Answer: 38.5%

Question: What about the Lym (24 h) of the same molecule?
Answer: 54%

Question: What about the MCH (24 h) of the same molecule?
Answer: 20.9 pg

Question: And the MCHC (24 h)?
Answer: 33.2%

Question: And the MCV (24 h)?
Answer: 63.1 fL

Question: What about the Mono (24 h) of the same molecule?
Answer: 4%

Question: And the Neu (24 h)?
Answer: 39.6%

Question: What about the PT (24 h) of the same molecule?
Answer: 12 s

Question: What about the Plat (24 h) of the same molecule?
Answer: 119.9 x10_4/uL

Question: What about the RBC (24 h) of the same molecule?
Answer: 610.2 x10_4/ul

Question: And the Ret (24 h)?
Answer: 6.5%

Question: What about the WBC (24 h) of the same molecule?
Answer: 162.1 x10_2/uL

Question: What about the KIDNEY_L (24 h) of the same molecule?
Answer: 1.1 g

Question: And the KIDNEY_R (24 h)?
Answer: 1.1 g

Question: And the KIDNEY_TOTAL (24 h)?
Answer: 2.2 g

Question: And the LIVER (24 h)?
Answer: 11.6 g

Question: And the A/G (24 h)?
Answer: 1.5

Question: What about the ALP (24 h) of the same molecule?
Answer: 949.2 IU/L

Question: And the ALT (24 h)?
Answer: 38.6 IU/L

Question: What about the AST (24 h) of the same molecule?
Answer: 69.8 IU/L

Question: What about the BUN (24 h) of the same molecule?
Answer: 13.4 mg/dL

Question: And the CRE (24 h)?
Answer: 0.4 mg/dL

Question: And the Ca (24 h)?
Answer: 10.4 mg/dL

Question: And the Cl (24 h)?
Answer: 105 meq/L

Question: What about the DBIL (24 h) of the same molecule?
Answer: 0.1 mg/dL

Question: And the GLC (24 h)?
Answer: 203.6 mg/dL

Question: What about the IP (24 h) of the same molecule?
Answer: 7.6 mg/dL

Question: And the K (24 h)?
Answer: 4.1 meq/L

Question: What about the LDH (24 h) of the same molecule?
Answer: 214.2 IU/L

Question: And the Na (24 h)?
Answer: 141.4 meq/L

Question: What about the PL (24 h) of the same molecule?
Answer: 148.2 mg/dL

Question: What about the RALB (24 h) of the same molecule?
Answer: 3.1 g/dL

Question: And the TBIL (24 h)?
Answer: 0.2 mg/dL

Question: And the TC (24 h)?
Answer: 74.6 mg/dL

Question: What about the TG (24 h) of the same molecule?
Answer: 108.8 mg/dL

Question: And the TP (24 h)?
Answer: 5.1 g/dL

Question: What about the gamma-GTP (24 h) of the same molecule?
Answer: 1 IU/L
